Results as given in patent publication US20240391930A1, “SPIROCYCLIC BICYCLIC MODULATORS OF CHOLESTEROL BIOSYNTHESIS AND THEIR USE FOR PROMOTING REMYELINATION” (GENENTECH, INC., priority 2021, published 2024).

Legend:
[1] = test system: zymostenol accumulation in EpiSC-derived OPCs (EBP); test: GC/MS-based sterol profiling (zymostenol accumulation); format: cell-based; conditions: Mus musculus, 24 hours, 8 doses from 0.15 nM to 333 nM, read-out: Zymostenol GCMS EC50
Summary of the method: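 Zymostenol level is expressed relative to that after 24 h with 100 nM positive-control reference, measured by full-scan GC/MS (m/z 458) with cholesterol-d7 internal standard after BSTFA derivatisation. Cells were EpiSC-derived OPCs, 100,000/well in N2B27 without growth factors, treated 24 h, from two or more independent platings.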

EpiSC-derived OPCs = test: In vitro phenotypic screening of OPCs (MBP high-content imaging); format: cell-based; conditions: Mus musculus, 72 h; percentage of MBP-positive oligodendrocytes, 3 days, 0.5 nM to 1000 nM; read-out: OPC EC50
Summary of the method: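 Mouse EpiSC-derived OPCs seeded at 150,000/cm^2 without growth factors, treated 3 days at 37° C with 8-point doses from 1000 nM to 0.5 nM. Fixed, MBP immunostained with DAPI; high-content imaging gives percentage MBP-positive oligodendrocytes.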

[2] = molecular target: T1, human emopamil binding protein and human 7-dehydrocholesterol reductase (hEBP-DHCR7) (Homo sapiens, UniProt Q15125); test: hEBP-DHCR7 radioligand filtration binding assay; conditions: membranes of HEK293 co-expressing hEBP and DHCR7; [3H] 2-thia-6-azaspiro[3.4]octane radioligand; 8 doses 0.06 to 5000 nM
T1 construct: expressed in transfected cells; host or cells: HEK 293 cells, transient transfection with 2 DNA constructs
Summary of the method: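 Membranes from HEK293 cells transiently co-expressing human EBP and DHCR7 (10 μg/well) incubated 3 h at 22 °C with tritiated 2-thia-6-azaspiro[3.4]octane dioxide radioligand (25 nM stock addition) and compound at 0.06–5000 nM final. Bound ligand collected on PEI-treated GF/B filters, scintillation-counted. IC50 by Hill fit; reported as Ki.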

T1 sequence (Q15125 whole entry): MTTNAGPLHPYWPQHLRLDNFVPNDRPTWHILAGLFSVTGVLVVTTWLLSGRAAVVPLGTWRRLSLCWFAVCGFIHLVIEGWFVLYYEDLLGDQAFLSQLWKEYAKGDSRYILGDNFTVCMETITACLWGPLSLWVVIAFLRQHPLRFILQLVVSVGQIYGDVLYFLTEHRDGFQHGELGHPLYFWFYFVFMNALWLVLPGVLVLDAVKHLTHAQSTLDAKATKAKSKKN

Row | EC50 [1] | EC50 (EpiSC-derived OPCs) | Ki [2] | SMILES
1 | 6.4 nM | 37 nM | 11.7 nM | CC(C)n1nc(-c2cccc(C(F)(F)F)c2)nc1[C@H]1[C@@H]2C[C@@H](N3CCC4(C3)CS(=O)(=O)C4)C[C@@H]21 [Compound 51, 6-((1R,3s,5S,6r)-6-(1-Isopropyl-3-(3-(trifluoromethyl)phenyl)-1H-1,2,4-triazol-5-yl)bicyclo[3.1.0]hexan-3-yl)-2-thia-6-azaspiro[3.4]octane 2,2-dioxide]
2 | 32 nM | 92 nM | 59.1 nM | CCn1nc(-c2ccccn2)cc1[C@H]1[C@@H]2C[C@H](N3CCC4(C3)CS(=O)(=O)C4)C[C@@H]21 [Compound 73, 6-((1R,3r,5S,6r)-6-(1-ethyl-3-(pyridin-2-yl)-1H-pyrazol-5-yl)bicyclo[3.1.0]hexan-3-yl)-2-thia-6-azaspiro[3.4]octane 2,2-dioxide]
3 | 10.6 nM | 102 nM | 21.6 nM | CC(C)n1nc(C2CCC(F)(F)CC2)cc1[C@H]1[C@@H]2C[C@@H](N3CCC4(C3)CS(=O)(=O)C4)C[C@@H]21 [Compound 108, 6-((1R,3s,5S,6r)-6-(3-(4,4-Difluorocyclohexyl)-1-isopropyl-1H-pyrazol-5-yl)bicyclo[3.1.0]hexan-3-yl)-2-thia-6-azaspiro[3.4]octane 2,2-dioxide]
